Results taken from US20200239530A1, “COMPOUNDS AND METHODS OF MODULATING PROTEIN DEGRADATION” (Vividion Therapeutics, Inc., priority 2017, published 2020).

What was measured:
[1] = molecular target: T1, ATP6V1A V-type proton ATPase catalytic subunit A (Homo sapiens, UniProt P38606); experiment: Cysteine liganding, probe competition; type: binding; conditions: for Liganded: ATP6V1A Res# 277, uniprot P38606
T1 construct: 200 μL of lysate containing 5 mg/ml proteome was treated with 2 μL of 100× compound stock; endogenous in cells
T1 sequence (P38606 whole entry): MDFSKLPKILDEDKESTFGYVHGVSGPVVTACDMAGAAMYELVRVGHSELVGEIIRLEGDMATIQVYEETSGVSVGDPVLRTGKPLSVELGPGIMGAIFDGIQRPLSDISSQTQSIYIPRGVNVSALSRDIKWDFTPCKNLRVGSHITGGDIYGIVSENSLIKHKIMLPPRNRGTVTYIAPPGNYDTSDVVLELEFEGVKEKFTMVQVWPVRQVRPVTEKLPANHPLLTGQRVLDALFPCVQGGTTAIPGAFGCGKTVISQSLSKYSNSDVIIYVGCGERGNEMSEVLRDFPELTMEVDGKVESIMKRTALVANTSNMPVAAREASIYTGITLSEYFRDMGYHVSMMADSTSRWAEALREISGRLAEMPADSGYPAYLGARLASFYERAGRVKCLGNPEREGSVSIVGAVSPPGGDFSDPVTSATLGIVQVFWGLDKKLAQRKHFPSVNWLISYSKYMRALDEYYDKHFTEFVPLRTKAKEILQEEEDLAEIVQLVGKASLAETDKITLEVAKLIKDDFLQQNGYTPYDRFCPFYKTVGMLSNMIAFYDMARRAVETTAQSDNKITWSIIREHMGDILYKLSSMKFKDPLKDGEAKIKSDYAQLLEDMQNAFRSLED
Procedure, shortened: (§1)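 Probe competition in native proteome: 5 mg/ml lysate, compound 1 hr 25° C, then desthiobiotin iodoacetamide (10 mM stock) 1 hr 25° C; acetone ppt, urea/DTT reduction, iodoacetamide alkylation, trypsin, streptavidin pull-down.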

[2] = molecular target: T2, FBXO30 F-box only protein 30 (Homo sapiens, UniProt Q8TB52); experiment: Cysteine liganding, probe competition; type: binding
T2 construct: Cells were resuspended in cold PBS on ice and sonicated with a probe sonicator to achieve lysis; endogenous in cells
T2 sequence (Q8TB52 1-745): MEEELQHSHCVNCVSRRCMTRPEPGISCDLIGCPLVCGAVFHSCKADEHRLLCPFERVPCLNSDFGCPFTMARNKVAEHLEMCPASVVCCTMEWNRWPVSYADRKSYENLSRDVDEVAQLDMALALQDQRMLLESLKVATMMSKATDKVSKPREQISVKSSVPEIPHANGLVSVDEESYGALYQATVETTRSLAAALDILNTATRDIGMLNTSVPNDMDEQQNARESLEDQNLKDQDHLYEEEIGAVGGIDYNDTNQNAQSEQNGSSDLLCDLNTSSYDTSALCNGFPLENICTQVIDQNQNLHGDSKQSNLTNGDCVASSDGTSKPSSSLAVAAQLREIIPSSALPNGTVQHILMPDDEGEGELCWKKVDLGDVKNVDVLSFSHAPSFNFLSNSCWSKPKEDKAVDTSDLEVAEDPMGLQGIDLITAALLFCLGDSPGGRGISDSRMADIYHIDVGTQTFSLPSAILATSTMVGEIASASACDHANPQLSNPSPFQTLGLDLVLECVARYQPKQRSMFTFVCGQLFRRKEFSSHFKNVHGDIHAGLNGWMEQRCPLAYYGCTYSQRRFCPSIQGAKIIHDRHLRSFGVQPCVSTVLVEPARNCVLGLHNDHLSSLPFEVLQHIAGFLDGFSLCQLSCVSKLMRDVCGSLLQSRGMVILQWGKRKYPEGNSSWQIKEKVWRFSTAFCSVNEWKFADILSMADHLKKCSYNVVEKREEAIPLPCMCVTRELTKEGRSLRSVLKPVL
Procedure, shortened: as §1

Row | SMILES | Liganded [1] | 100 Max ([1]; uniprot P38606) | 100 ave ([1]; uniprot P38606) | 500 Max ([1]; uniprot P38606) | 500 ave ([1]; uniprot P38606) | 100 Max ([2]; uniprot Q8TB52) | 100 ave ([2]; uniprot Q8TB52) | 500 ave ([2]; uniprot Q8TB52) | 500 Max ([2]; uniprot Q8TB52, unit assumed) | Liganded ([2]; FBXO30 Res# 725, uniprot Q8TB52)
1 | O=C(CCl)Nc1cc(C(F)(F)F)cc(C(F)(F)F)c1 [KBO3] | YES | 27.98 | 18.165 | 76.55 | 69.985 | 10.4 | 4.3 | 25.0 | 39.5% | 
2 | COc1ccc2c(c1)CCCN2C(=O)CCl [KB02] | YES |  |  |  |  |  |  |  |  | YES
